# Legend:
# [1] = Toxicity in C57 mouse allografted with mouse B16-F10 cells assessed as pathological damage in heart at 10 mg/kg, ip administered consecutively for 14 days by H and E staining based analysis; format: organism-based; conditions: in vivo, 336 h, time 14 day
# [2] = tested on: B16-F10; assay: Induction of apoptosis in mouse B16-F10 cells assessed as early apoptotic cells at 50 nM incubated for 48 hrs by annexinV-FITC/PI staining based flow cytometry (reference value: 4.25 %); format: functional
# [3] = tested on: B16-F10; assay: Inhibition of cell migration in mouse B16-F10 cells assessed as wound area ratio at 50 nM incubated for 24 hrs by wound healing assay relative to control; format: functional
# [4] = tested on: B16-F10; assay: Antitumor activity against mouse B16-F10 cells allografted in C57 mouse assessed as tumor growth inhibition at 10 mg/kg, ip administered consecutively for 14 days; format: functional; conditions: B16-F10, 336 h, time 14 day, read-out: TGI
# [5] = tested on: B16-F10; assay: Induction of cell cycle arrest in mouse B16-F10 cells assessed as accumulation at G2 phase at 25 nM incubated for 24 hrs by PI staining based flow cytometry (reference value: 23.04 %); format: functional
# [6] = tested on: B16-F10; assay: Antiproliferative activity against mouse B16-F10 cells incubated for 48 hrs by MTT assay; format: functional, cell-based; conditions: B16-F10, 48 h
# [7] = Toxicity in C57 mouse allografted with mouse B16-F10 cells assessed as pathological damage in kidney at 10 mg/kg, ip administered consecutively for 14 days by H and E staining based analysis; format: organism-based; conditions: in vivo, 336 h, time 14 day
# [8] = tested on: B16-F10; assay: Induction of cell cycle arrest in mouse B16-F10 cells assessed as accumulation at S phase at 50 nM incubated for 24 hrs by PI staining based flow cytometry (reference value: 21.79 %); format: functional
# [9] = tested on: B16-F10; assay: Inhibition of cell migration in mouse B16-F10 cells assessed as wound area recovery upto 50 nM incubated for 24 hrs by wound healing assay relative to control; format: functional; set-up: scale not given: the % may be the effect or the level left; conditions: up to 50 nM
# [10] = tested on: B16-F10; assay: Induction of cell cycle arrest in mouse B16-F10 cells assessed as accumulation at G1 phase at 10 nM incubated for 24 hrs by PI staining based flow cytometry (reference value: 52.77 %); format: functional
# [11] = tested on: B16-F10; assay: Inhibition of colony formation in mouse B16-F10 cells at 50 uM incubated for 24 hrs and subsequent replacement of medium without compound measured after 10 to 14 days by crystal violet staining based assay relative to control; format: functional
# [12] = target: Tubulin (Sus scrofa, UniProt P02554+P02550); assay: Inhibition of tubulin polymerization of pig brain microtubules by spectroscopic analysis; format: tissue-based
# [13] = tested on: B16-F10; assay: Induction of apoptosis in mouse B16-F10 cells assessed as necrotic cells at 25 nM incubated for 48 hrs by annexinV-FITC/PI staining based flow cytometry (reference value: 0.064 %); format: functional
# [14] = tested on: B16-F10; assay: Immunomodulatory activity in mouse B16-F10 cells allografted in C57 mouse assessed as increase in CD3-positive CD4-positive cells at 10 mg/kg, ip administered consecutively for 14 days (reference value: 8.35 %); format: functional; conditions: time 14 day
# [15] = tested on: B16-F10; assay: Induction of apoptosis in mouse B16-F10 cells assessed as viable cells at 25 nM incubated for 48 hrs by annexinV-FITC/PI staining based flow cytometry (reference value: 93.6 %); format: functional; conditions: read-out: Activity
# [16] = tested on: B16-F10; assay: Inhibition of tubulin polymerization in mouse B16-F10 cells assessed as loss of cellular structure incubated for 6 hrs by fluorescence microscopy; format: cell-based; conditions: dose 10-50 nM
# [17] = tested on: B16-F10; assay: Induction of apoptosis in mouse B16-F10 cells assessed as late apoptotic cells at 50 nM incubated for 48 hrs by annexinV-FITC/PI staining based flow cytometry (reference value: 2.06 %); format: functional
# [18] = tested on: B16-F10; assay: Induction of cell cycle arrest in mouse B16-F10 cells assessed as accumulation at G1 phase at 50 nM incubated for 24 hrs by PI staining based flow cytometry (reference value: 52.77 %); format: functional
# [19] = tested on: B16-F10; assay: Inhibition of cell migration in mouse B16-F10 cells assessed as wound area ratio at 10 nM incubated for 24 hrs by wound healing assay relative to control; format: functional
# [20] = tested on: B16-F10; assay: Immunomodulatory activity in mouse B16-F10 cells allografted in C57 mouse assessed as increase in CD3-positive CD8-positive cells at 10 mg/kg, ip administered consecutively for 14 days (reference value: 6.66 %); format: functional; conditions: time 14 day
# [21] = tested on: B16-F10; assay: Immunomodulatory activity in mouse B16-F10 cells allografted in C57 mouse assessed as decrease in PD-L1 level at 10 mg/kg, ip administered consecutively for 14 days relative to control; format: functional; set-up: scale not given: the % may be the effect or the level left; conditions: time 14 day
# [22] = tested on: B16-F10; assay: Immunomodulatory activity in mouse B16-F10 cells allografted in C57 mouse assessed as increase in CD3-positive CD8-positive cells at 10 mg/kg, ip administered consecutively for 14 days in presence of NP-19 (reference value: 6.66 %); format: functional; conditions: time 14 day
# [23] = tested on: B16-F10; assay: Induction of cell cycle arrest in mouse B16-F10 cells assessed as accumulation at S phase at 25 nM incubated for 24 hrs by PI staining based flow cytometry (reference value: 21.79 %); format: functional
# [24] = tested on: HepG2; assay: Antiproliferative activity against human HepG2 cells incubated for 48 hrs by MTT assay; format: functional, cell-based; conditions: HepG2, 48 h
# [25] = tested on: B16-F10; assay: Induction of cell cycle arrest in mouse B16-F10 cells assessed as accumulation at G2 phase at 50 nM incubated for 24 hrs by PI staining based flow cytometry (reference value: 23.04 %); format: functional
# [26] = tested on: HCT-116; assay: Antiproliferative activity against human HCT-116 cells incubated for 48 hrs by MTT assay; format: functional, cell-based; conditions: HCT-116, 48 h
# [27] = tested on: B16-F10; assay: Inhibition of tubulin polymerization in mouse B16-F10 cells assessed as disruption of microtubule network incubated for 6 hrs by fluorescence microscopy; format: cell-based; conditions: dose 10-50 nM
# [28] = tested on: B16-F10; assay: Immunomodulatory activity in mouse B16-F10 cells allografted in C57 mouse assessed as increase in CD3-positive CD4-positive cells at 10 mg/kg, ip administered consecutively for 14 days in presence of NP-19 (reference value: 8.35 %); format: functional; conditions: time 14 day
# [29] = tested on: B16-F10; assay: Induction of apoptosis in mouse B16-F10 cells assessed as early apoptotic cells at 10 nM incubated for 48 hrs by annexinV-FITC/PI staining based flow cytometry (reference value: 4.25 %); format: functional
# [30] = tested on: B16-F10; assay: Immunomodulatory activity in mouse B16-F10 cells allografted in C57 mouse assessed as decrease in PD-L1 level at 10 mg/kg, ip administered consecutively for 14 days in presence of NP-19 relative to control; format: functional; set-up: scale not given: the % may be the effect or the level left; conditions: time 14 day
# [31] = tested on: B16-F10; assay: Induction of apoptosis in mouse B16-F10 cells assessed as viable cells at 10 nM incubated for 48 hrs by annexinV-FITC/PI staining based flow cytometry (reference value: 93.6 %); format: functional; conditions: read-out: Activity
# [32] = tested on: B16-F10; assay: Induction of apoptosis in mouse B16-F10 cells assessed as viable cells at 50 nM incubated for 48 hrs by annexinV-FITC/PI staining based flow cytometry (reference value: 93.6 %); format: functional; conditions: read-out: Activity
# [33] = Toxicity in C57 mouse allografted with mouse B16-F10 cells assessed as body weight loss at 10 mg/kg, ip administered consecutively for 14 days; format: organism-based; conditions: in vivo, 336 h, time 14 day
# [34] = Toxicity in C57 mouse allografted with mouse B16-F10 cells assessed as pathological damage in liver at 10 mg/kg, ip administered consecutively for 14 days by H and E staining based analysis; format: organism-based; conditions: in vivo, 336 h, time 14 day
compound,measurement,setting,value
COc1ccc2c(c1F)Cc1ccccc1N2C(=O)c1cc(OC)c(OC)c(OC)c1,Activity,[1],Non-Toxic
same,Activity,[2],36.8%
same,Ratio,[3],7.2%
same,inhibition in vivo at 10 mg/kg,[4],65.1%
same,Activity,[5],43.79%
same,IC50,[6],0.02 µM
same,Activity,[7],Non-Toxic
same,Activity,[8],24.31%
same,Activity,[9],59.63%
same,Activity,[10],50.88%
same,inhibition at 50 µM,[11],~100%
same,IC50,[12],1.5 µM
same,Activity,[13],0.268%
same,Activity,[14],10.1%
same,viability at 0.025 µM,[15],70.4%
same,inhibition,[16],Dose-Dependent Effect
same,Activity,[17],13.4%
same,Activity,[18],3.24%
same,Ratio,[19],31.52%
same,Activity,[20],8.17%
same,Activity,[21],~10%
same,Activity,[22],19.5%
same,Activity,[23],38.12%
same,IC50,[24],0.041 µM
same,Activity,[25],71.11%
same,IC50,[26],0.023 µM
same,inhibition,[27],Dose-Dependent Effect
same,Activity,[28],26.3%
same,Activity,[29],5.7%
same,Activity,[30],~60%
same,viability at 0.01 µM,[31],91%
same,viability at 0.05 µM,[32],49.3%
same,Activity,[33],Non-Toxic
same,Activity,[34],Non-Toxic

# From ChEMBL document CHEMBL5325396, “Discovery of Novel Acridane-Based Tubulin Polymerization Inhibitors with Anticancer and Potential Immunomodulatory Effects” (J Med Chem, 2023)
